The source of these data is US20070179060A1, “6-(Poly-substituted aryl)-4-aminopicolinates and their use as herbicides” (priority 2006, published 2007).

The subject of data set [1] is lambsquarter (Chenopodium album). Description: Postemergence herbicidal activity. Format: in vivo. Conditions: post-emergent, 140 g ai/ha, after 14 days; for pest or weed control at 140 g/ha: Chenopodium album, post-emergence, 336 h, read-out: % Control CHEAL. On the procedure: (§1) Seeds or nutlets of the desired test plant species were planted in Sun Gro MetroMix® 306 planting mixture, which typically has a pH of 6.0 to 6.8 and an organic matter content of about 30 percent, in plastic pots with a surface area of 64 square centimeters. When required to ensure good germination and healthy plants, a fungicide treatment and/or other chemical or physical treatment was applied. The plants were grown for 7-21 days in a greenhouse with an approximate 15 hour photoperiod which was maintained at about 23-29° C. during the day and 22-28° C. during the night. Nutrients and water were added on a regular basis and supplemental lighting was provided with overhead metal halide 1000-Watt lamps as necessary. The plants were employed for testing when they reached the first or second true leaf stage. […] The concentrated stock solutions obtained were diluted with 20 mL of an aqueous mixture containing acetone, water, isopropyl alcohol, DMSO, Atplus 411F crop oil concentrate, and Triton® X-155 surfactant in a 48.5:39:10:1.5:1.0:0.02 v/v ratio to obtain spray solutions containing the highest application rates. […] Compound requirements are based upon a 12 mL application volume at a rate of 187 L/ha. Formulated compounds were applied to the plant material with an overhead Mandel track sprayer equipped with a […] nozzles calibrated to deliver 187 L/ha over an application area of 0.503 square meters at a spray height of 18 inches (43 cm) above the average plant canopy height. Control plants were sprayed in the same manner with the solvent blank. The treated plants and control plants were placed in a greenhouse as described above and watered by sub-irrigation to prevent wash-off of the test compounds. […] By applying the well-accepted probit analysis as described by J. Berkson in Journal of the American Statistical […], 48, 565 (1953) and by D.

Data set [2] concerns redroot pigweed (Amaranthus retroflexus). Briefly: Postemergence herbicidal activity. The class given is in vivo. As to conditions: post-emergent, 140 g ai/ha, after 14 days; for pest or weed control at 140 g/ha: Amaranthus retroflexus, post-emergence, 336 h, read-out: % Control AMARE. On the procedure:
as §1

The test system of data set [3] is velvetleaf (Abutilon theophrasti). Description: Postemergence herbicidal activity. Conditions: post-emergent, 140 g ai/ha, after 14 days; for pest or weed control at 140 g/ha: Abutilon theophrasti, post-emergence, 336 h, read-out: % Control ABUTH. The class given is in vivo. The protocol:
as §1

Data set [4] concerns lambsquarter (Chenopodium album). Briefly: Preemergence herbicidal activity. Format: in vivo. As to conditions: pre-emergent, 140 g ai/ha, after 20-22 days; for pest or weed control at 140 g/ha: Chenopodium album, pre-emergence, 480 h, read-out: % Control CHEAL. An excerpt: (§2) Seeds of the desired test plant species were planted in a soil matrix prepared by mixing a loam soil (43 percent silt, 19 percent clay, and 38 percent sand, with a pH of about 8.1 and an organic matter content of about 1.5 percent) and sand in a 70 to 30 ratio. The soil matrix was contained in plastic pots with a surface area of 113 square centimeters. When required to ensure good germination and healthy plants, a fungicide treatment and/or other chemical or physical treatment was applied. […] Compound requirements are based upon a 12 mL application volume at a rate of 187 L/ha. Formulated compounds were applied to the plant material with an overhead Mandel track sprayer equipped with a […] nozzles calibrated to deliver 187 L/ha over an application area of 0.503 square meters at a spray height of 18 inches (43 cm) above the soil surface. Control plants were sprayed in the same manner with the solvent blank. The treated pots and control pots were placed in a greenhouse maintained with an approximate 15 hour photoperiod and temperatures of about 23-29° C. during the day and 22-28° C. during the night. Nutrients and water were added on a regular basis and supplemental lighting was provided with overhead metal halide 1000-watt lamps as necessary. The water was added by top-irrigation.

Data set [5] deals with redroot pigweed (Amaranthus retroflexus). Briefly: Preemergence herbicidal activity. The class given is in vivo. Conditions: pre-emergent, 140 g ai/ha, after 20-22 days; for pest or weed control at 140 g/ha: Amaranthus retroflexus, pre-emergence, 480 h, read-out: % Control AMARE.
Description: as §2

Data set [6] concerns velvetleaf (Abutilon theophrasti). Briefly: Preemergence herbicidal activity. The class given is in vivo. As to conditions: pre-emergent, 140 g ai/ha, after 20-22 days; for pest or weed control at 140 g/ha: Abutilon theophrasti, pre-emergence, 480 h, read-out: % Control ABUTH.
Description: as §2

In the case of `CCOc1c(Cl)cc(F)c(-c2cc(N)c(Cl)c(C(=O)OC)n2)c1F` [Compound 59, 4-Amino-3-chloro-6-(4-chloro-2,6-difluoro-3-ethoxyphenyl)pyridine-2-carboxylic acid, methyl ester], the pest or weed control at 140 g/ha is 90% in data set [1]; 90% in data set [2]; 100% in data set [3]; 60% in data set [4]; 100% in data set [5]; 90% in data set [6].
`COC(=O)c1nc(-c2ccc(Cl)c(C(F)F)c2Cl)cc(N)c1Cl` [Compound 62, 4-Amino-3-chloro-6-(2,4-dichloro-3-difluoromethylphenyl)pyridine-2-carboxylic acid, methyl ester]: the pest or weed control at 140 g/ha in data set [1], in data set [2], in data set [3], in data set [4], in data set [5] and in data set [6] was 100% throughout.
Turning to `COC(=O)c1nc(-c2ccc(Cl)c(C(C)F)c2Cl)cc(N)c1Cl` (stereo not drawn) [Compound 63], the “% Control CHEAL” value in data set [1] and in data set [4] was 100% each time. Further, the “% Control AMARE” value in data set [2] and in data set [5] was 100% throughout. For the same molecule, the “% Control ABUTH” value in data set [3] and in data set [6] was 100% in each case.
What is called melting point is the temperature of the solid-liquid transition. `CCOc1c(F)ccc(-c2cc(N)c(Cl)c(C(=O)OC)n2)c1F` [Compound 80, 4-Amino-3-chloro-6-(2,4-difluoro-3-ethoxyphenyl)pyridine-2-carboxylic acid, methyl ester]: the melting point lay in the range of 158 to 159 °C. In addition, the pest or weed control at 140 g/ha in data set [1] came to 95%. In data set [2], the pest or weed control at 140 g/ha was determined as 100%. For the same molecule, the pest or weed control at 140 g/ha in data set [3] came out at 100%.
In the case of `COC(=O)c1nc(-c2ccc(Cl)c(C3CC3)c2F)cc(N)c1Cl` [Compound 81, 4-Amino-3-chloro-6-(4-chloro-3-cyclopropyl-2-fluorophenyl)pyridine-2-carboxylic acid, methyl ester], the melting point is 135 to 136.5 °C. Also, the pest or weed control at 140 g/ha in data set [1] was found to be 95%. For the same molecule, the pest or weed control at 140 g/ha in data set [2] was determined as 100%. Further, the pest or weed control at 140 g/ha in data set [3] is 100%.
For the molecule `Cc1c(Cl)ccc(-c2cc(N)c(Cl)c(C(=O)O)n2)c1Cl` [Compound 98, 4-Amino-3-chloro-6-(2,4-dichloro-3-methylphenyl)pyridine-2-carboxylic acid], the melting point is 170 to 172 °C (dec.). Also, the pest or weed control at 140 g/ha in data set [1] worked out at 80%. Moreover, in data set [2], the pest or weed control at 140 g/ha worked out at 70%. Besides, in data set [3], the pest or weed control at 140 g/ha came out at 90%.
On the same counts, the results for `Nc1cc(-c2ccc(Cl)c(C(F)F)c2F)nc(C(=O)O)c1Cl` [Compound 106, 4-Amino-3-chloro-6-(4-chloro-2-fluoro-3-difluoromethylphenyl)pyridine-2-carboxylic acid] are 182 to 183 °C (dec.), 90%, 100% and 90%.
In the same order, the values of `COc1c(C(F)(F)F)ccc(-c2cc(N)c(Cl)c(C(=O)O)n2)c1F` [Compound 107, 4-Amino-3-chloro-6-(2-fluoro-3-methoxy-4-trifluoromethylphenyl)pyridine-2-carboxylic acid] are 177 to 178 °C (dec.), 90%, 80% and 100%.
Turning to `CN(C)c1cc(-c2cc(N)c(Cl)c(C(=O)O)n2)c(F)cc1Cl` [Compound 111, 4-Amino-3-chloro-6-(4-chloro-5-dimethyamino-2-fluorophenyl)pyridine-2-carboxylic acid], in data set [4], the “% Control CHEAL” value was found to be 100%. Further, the “% Control AMARE” value in data set [5] was found to be 100%. Moreover, the “% Control ABUTH” value in data set [6] was determined as 35%.
For `CN(C)c1c(Cl)ccc(-c2cc(N)c(Cl)c(C(=O)O)n2)c1Cl` [Compound 117, 4-Amino-3-chloro-6-[2,4-dichloro-3-(dimethylamino)phenyl]pyridine-2-carboxylic acid], the melting point was in the range of 177 to 178 °C. In addition, the pest or weed control at 140 g/ha in data set [1] is 100%. Further, the pest or weed control at 140 g/ha in data set [2] is 100%. The pest or weed control at 140 g/ha in data set [3] turned out to be 100%.
`CNc1c(Cl)ccc(-c2cc(N)c(Cl)c(C(=O)O)n2)c1F` [Compound 118, 4-Amino-3-chloro-6-[4-chloro-2-fluoro-3-(methylamino)phenyl]pyridine-2-carboxylic acid]: the melting point fell in the range of 185 to 186 °C. For the same molecule, in data set [1], the pest or weed control at 140 g/ha was 100%. Besides, the pest or weed control at 140 g/ha in data set [2] is 100%. Also, the pest or weed control at 140 g/ha in data set [3] worked out at 100%.
As for `COc1c(C)ccc(-c2cc(N)c(Cl)c(C(=O)O)n2)c1F` [Compound 119, 4-Amino-3-chloro-6-(2-fluoro-3-methoxy-4-methylphenyl)pyridine-2-carboxylic acid], the melting point was in the range of 178 to 179 °C. The pest or weed control at 140 g/ha in data set [1] worked out at 95%. In addition, the pest or weed control at 140 g/ha in data set [2] turned out to be 100%. Also, the pest or weed control at 140 g/ha in data set [3] was found to be 100%.
With `Nc1cc(-c2ccc(Cl)c(C(F)F)c2Cl)nc(C(=O)O)c1Cl` [Compound 126, 4-Amino-3-chloro-6-(2,4-dichloro-3-difluoromethylphenyl)pyridine-2-carboxylic acid], the melting point was 182 to 183 °C (dec.). In addition, the pest or weed control at 140 g/ha in data set [1] was 100%. The pest or weed control at 140 g/ha in data set [2] was determined as 100%. The pest or weed control at 140 g/ha in data set [3] is 90%.
On to `Nc1cc(-c2ccc(Cl)c(C(F)C(F)(F)F)c2F)nc(C(=O)O)c1Cl` (stereo not drawn) [Compound 129, 4-Amino-3-chloro-6-[4-chloro-2-fluoro-3-(1,2,2,2-tetrafluoroethyl)-phenyl)pyridine-2-carboxylic acid], for which the melting point was 175 to 176 °C (dec.). Also, the pest or weed control at 140 g/ha in data set [1] turned out to be 90%. Moreover, the pest or weed control at 140 g/ha in data set [2] was found to be 95%. In addition, the pest or weed control at 140 g/ha in data set [3] was determined as 85%.
On the same counts, the results for `CCC(F)c1c(Cl)ccc(-c2cc(N)c(Cl)c(C(=O)OC)n2)c1F` (stereo not drawn) [Compound 130, 4-Amino-3-chloro-6-[4-chloro-2-fluoro-3-(1-fluoropropyl)phenyl]pyridine-2-carboxylic acid, methyl ester] are 165 to 167 °C (dec.), 95%, 95% and 80%.
On the same counts, the results for `Nc1cc(-c2ccc(Cl)c(OC(F)F)c2F)nc(C(=O)O)c1Cl` [Compound 134, 4-Amino-3-chloro-6-(4-chloro-3-difluoromethoxy-2-fluorophenyl)pyridine-2-carboxylic acid] are 179 °C (dec.), 90%, 100% and 95%.
